Measured values taken from PMC8659278, “Dianthiamides A–E, Proline-Containing Orbitides from Dianthus chinensis” (Molecules, 2021).
pIC50: −log10 of the molar value. Where two headings read alike, the source gives them in different places. Peptide text beside a SMILES is read from it.

Tested on: human non-small cell lung cancer A549 cells
Assay: MTT cytotoxicity assay, A549 cells
Format: cell-based
Method: Human non-small cell lung cancer A549 and human stomach adenocarcinoma MKN-28 cells were purchased from the American Type Culture Collection (ATCC; Manassas, VA, USA). […] Docetaxel was used as a positive control with an IC50 value of 0.08 μM on A549 cells.

Row | SMILES | pIC50 (Homo sapiens, A549, MTT assay, 5 × 10^3 cells/well, 48 h incubation, tested 5–200 µM, absorbance 540 nm, read-out: cytotoxic activity against A549 cell line, IC50) | pIC50 (human, 48 h)
1 | CC(=O)O[C@@]12CO[C@@H]1C[C@H](O)[C@@]1(C)C(=O)[C@H](O)C3=C(C)[C@@H](OC(=O)[C@H](O)[C@@H](NC(=O)OC(C)(C)C)c4ccccc4)C[C@@](O)([C@@H](OC(=O)c4ccccc4)[C@H]21)C3(C)C [docetaxel] | 7.10 | 
2 | CC[C@H](C)[C@@H]1NC(=O)[C@@H]2CCCN2C(=O)[C@@H]2CCCN2C(=O)[C@H](CC(C)C)NC(=O)[C@H](Cc2ccccc2)NC(=O)CNC(=O)[C@H](CC(N)=O)NC1=O [dianthiamide A, cyclo-(Gly^1-L-Phe^2-L-Leu^3-L-trans-Proa^4-L-cis-Prob^5-L-Ile^6-L-Asn^7)] (cyclo(GFLPPIN)) |  | 4.32
